Assay results as given in patent US11566007B2, “Ras inhibitors” (Revolution Medicines, Inc., priority 2019, dated 2023).

Tests used:
[1] = tested on: NCI-H358 cells (K-Ras G12C); assay: Potency assay: pERK in NCI-H358 cells; type: cell-based, human; details: Homo sapiens, NCI-H358; H358 KRAS G12C; read-out: pERK EC50
Method in brief: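 4 h cpd, 37 °C; 10-pt 3-fold series, 10 mM DMSO top stock, duplicates. Readout pERK: AlphaLISA SureFire Ultra or In-Cell Western (IR-800CW secondary, DRAQ5 DNA stain). IC50, 4-PL fit vs log conc.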

[2] = molecular target: K-Ras G12C (Homo sapiens (Human), UniProt P01116+P62937, G12C); assay: Ras-Raf (BRAF RBD) disruption / FRET / MOA assay, KRAS G12C; type: biochemical; details: KRAS G12C; Ras-Raf disruption/FRET/MOA assay; read-out: IC50* KRAS G12C FRET data
Method in brief: (§1)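 Compound-driven ternary complex of nucleotide-loaded Ras with cyclophilin A, disrupting BRAF RBD binding. 10-point 3-fold dilution from 30 μM final, 3 h at 25° C, then anti-His Eu-W1024 (10 nM) and anti-GST allophycocyanin (50 nM) for 1.5 h. IC50 from TR-FRET ratio decrease versus DMSO.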

[3] = molecular target: KRAS G12S (Homo sapiens (Human), UniProt P01116+P62937, G12S); assay: Ras-Raf (BRAF RBD) disruption / FRET / MOA assay, KRAS G12S; type: biochemical; details: Ras-Raf disruption/FRET/MOA assay; class symbols; read-out: KRAS G12S FRET data IC50
Method in brief: as §1

[4] = molecular target: KRAS WT (Homo sapiens (Human), UniProt P01116+P62937); assay: Ras-Raf (BRAF RBD) disruption / FRET / MOA assay, KRAS WT; type: biochemical; details: read-out: IC50* KRAS WT FRET data
Method in brief: as §1

[5] = molecular target: KRAS G13D (Homo sapiens (Human), UniProt P01116+P62937, G13D); assay: Ras-Raf (BRAF RBD) disruption / FRET / MOA assay, KRAS G13D; type: biochemical; details: read-out: IC50* KRAS G13D FRET data
Method in brief: as §1

[6] = molecular target: KRAS Q61H (Homo sapiens (Human), UniProt P01116+P62937, Q61H); assay: Ras-Raf (BRAF RBD) disruption / FRET / MOA assay, KRAS Q61H; type: biochemical; details: Ras-Raf disruption/FRET/MOA assay; class symbols; read-out: KRAS Q61H FRET data IC50
Method in brief: (§2)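 Compounds (30 μM top final, 10-point 3-fold dilutions) incubated 3 h at 25° C with nucleotide-loaded Ras, cyclophilin A and BRAF RBD. Detection with 10 nM anti-His Eu-W1024 and 50 nM anti-GST allophycocyanin over another 1.5 h. Lowered TR-FRET ratio relative to DMSO wells gives IC50.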

[7] = molecular target: NRAS Q61K (Homo sapiens (Human), UniProt P01111+P62937, Q61K); assay: Ras-Raf (BRAF RBD) disruption / FRET / MOA assay, NRAS Q61K; type: biochemical; details: NRAS Q61K; Ras-Raf disruption/FRET/MOA assay; read-out: IC50* NRAS Q61K FRET data
Method in brief: as §2

KRAS Q61H, sequence (P01116-2 other isoform, or with tags, fused parts or gaps Q61H): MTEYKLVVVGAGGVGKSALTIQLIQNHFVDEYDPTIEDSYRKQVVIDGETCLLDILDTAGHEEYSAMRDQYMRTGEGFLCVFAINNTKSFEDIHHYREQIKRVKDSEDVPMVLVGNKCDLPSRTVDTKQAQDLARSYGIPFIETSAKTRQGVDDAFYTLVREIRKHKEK
KRAS Q61H, sequence (P62937 whole entry): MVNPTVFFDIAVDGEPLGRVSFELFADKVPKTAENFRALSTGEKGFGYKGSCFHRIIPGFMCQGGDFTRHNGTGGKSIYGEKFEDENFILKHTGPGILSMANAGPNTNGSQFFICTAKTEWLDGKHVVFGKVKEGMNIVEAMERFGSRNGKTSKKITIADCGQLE
NRAS Q61K, sequence (P01111 whole entry Q61K): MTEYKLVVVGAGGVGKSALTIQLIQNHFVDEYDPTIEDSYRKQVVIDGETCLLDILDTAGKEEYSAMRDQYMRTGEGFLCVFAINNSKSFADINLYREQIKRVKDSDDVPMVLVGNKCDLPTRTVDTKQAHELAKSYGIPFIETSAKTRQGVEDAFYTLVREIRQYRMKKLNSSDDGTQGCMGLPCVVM
NRAS Q61K, sequence (P62937 whole entry): as the sequence (P62937 whole entry) above
KRAS G13D, sequence (P01116-2 other isoform, or with tags, fused parts or gaps G13D): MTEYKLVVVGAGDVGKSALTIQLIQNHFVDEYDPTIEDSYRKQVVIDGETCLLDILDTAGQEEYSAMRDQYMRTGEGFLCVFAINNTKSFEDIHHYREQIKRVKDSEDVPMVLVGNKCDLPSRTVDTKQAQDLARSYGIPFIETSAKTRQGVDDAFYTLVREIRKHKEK
KRAS G13D, sequence (P62937 whole entry): as the sequence (P62937 whole entry) above
K-Ras G12C, sequence (P01116-2 other isoform, or with tags, fused parts or gaps G12C): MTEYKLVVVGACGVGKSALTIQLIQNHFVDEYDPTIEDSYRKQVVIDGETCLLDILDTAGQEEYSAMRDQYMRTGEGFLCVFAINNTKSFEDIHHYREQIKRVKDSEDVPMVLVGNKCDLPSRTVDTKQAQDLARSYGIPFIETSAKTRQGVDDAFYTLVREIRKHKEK
K-Ras G12C, sequence (P62937 whole entry): as the sequence (P62937 whole entry) above
KRAS WT, sequence (P01116-2 other isoform, or with tags, fused parts or gaps): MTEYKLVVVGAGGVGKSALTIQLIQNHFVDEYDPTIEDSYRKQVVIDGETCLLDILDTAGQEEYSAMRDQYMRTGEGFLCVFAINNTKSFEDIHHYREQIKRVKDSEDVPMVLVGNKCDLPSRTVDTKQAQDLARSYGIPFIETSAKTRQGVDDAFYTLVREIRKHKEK
KRAS WT, sequence (P62937 whole entry): as the sequence (P62937 whole entry) above
KRAS G12S, sequence (P01116-2 other isoform, or with tags, fused parts or gaps G12S): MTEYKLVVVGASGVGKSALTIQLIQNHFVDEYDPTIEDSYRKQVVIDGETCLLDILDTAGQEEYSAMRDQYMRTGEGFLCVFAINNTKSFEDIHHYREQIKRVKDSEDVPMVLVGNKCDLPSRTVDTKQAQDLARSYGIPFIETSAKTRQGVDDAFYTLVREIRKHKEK
KRAS G12S, sequence (P62937 whole entry): as the sequence (P62937 whole entry) above

Row | SMILES | EC50 [1] [µM] | IC50 [2] [µM] | IC50 [3] [µM] | IC50 [4] [µM] | IC50 [5] [µM] | IC50 [6] [µM] | IC50 [7] [µM]
1 | C=CC(=O)N1CCC2(CCCN(C(=O)N(C)[C@H](C(=O)N[C@H]3Cc4nc(cs4)-c4ccc5c(c4)c(c(-c4cccnc4[C@H](C)OC)n5CC)CC(C)(C)COC(=O)[C@@H]4CCCN(N4)C3=O)C(C)C)C2)CC1 (atropisomer, axis not shown) [Example A696] | < 5 | 0.1 to 1 | 0.1 to 1 | 0.1 to 1 | 1 to 10 | 0.01 to 0.1 | 0.01 to 0.1
2 | CCn1c(-c2cccnc2[C@H](C)OC)c2c3cc(ccc31)-c1cccc(c1)C[C@H](NC(=O)[C@@H](COC1CN(C(=O)C#CC(C)(C)O)C1)C(C)C)C(=O)N1CCC[C@H](N1)C(=O)OCC(C)(C)C2 (atropisomer, axis not shown) [Example A708] | < 5 | 0.1 to 1 | > 10 | 1 to 10 | > 10 | 1 to 10 | > 10
3 | CCn1c(-c2cccnc2[C@H](C)OC)c2c3cc(ccc31)-c1csc(n1)C[C@H](NC(=O)[C@H](C(C)C)N(C)C(=O)N1CCN(C(=O)/C=C/CN(C)C)C[C@@H]1C)C(=O)N1CCC[C@H](N1)C(=O)OCC(C)(C)C2 (atropisomer, axis not shown) [Example A709] | < 5 | 0.01 to 0.1 | 0.1 to 1 | 0.1 to 1 | 0.1 to 1 | 0.01 to 0.1 | 0.01 to 0.1
4 | CCn1c(-c2cccnc2[C@H](C)OC)c2c3cc(ccc31)-c1csc(n1)C[C@H](NC(=O)[C@H](C(C)C)N(C)C(=O)N1CC(N(C)C(=O)/C=C/CN(C)C)C1)C(=O)N1CCC[C@H](N1)C(=O)OCC(C)(C)C2 (atropisomer, axis not shown) [Example A710] | < 5 | 0.01 to 0.1 | 0.1 to 1 | 0.1 to 1 | 0.1 to 1 | 0.01 to 0.1 | 0.01 to 0.1
5 | C=C(OC)C(=O)N1CC(N(C)C(=O)N(C)[C@H](C(=O)N[C@H]2Cc3nc(cs3)-c3ccc4c(c3)c(c(-c3cccnc3[C@H](C)OC)n4CC)CC(C)(C)COC(=O)[C@@H]3CCCN(N3)C2=O)C(C)C)C1 (atropisomer, axis not shown) [Example A713] | < 5 | 0.1 to 1 | 0.1 to 1 | 0.1 to 1 | 1 to 10 | 0.1 to 1 | 0.1 to 1
6 | C=CC(=O)N1CC[C@H](C(=O)N(C)[C@H](C(=O)N[C@H]2CN3CCC=C(C3)c3ccc4c(c3)c(c(-c3cccnc3[C@H](C)OC)n4CC)CC(C)(C)COC(=O)[C@@H]3CCCN(N3)C2=O)C(C)C)C1 (atropisomer, axis not shown) [Example A716, (3S)-1-acryloyl-N-((2S)-1-(((6^3S,4S)-1^1-ethyl-1^2-(2-((S)-1-methoxyethyl)pyridin-3-yl)-10,10-dimethyl-5,7-dioxo-2^1,2^2,2^3,2^6,6^1,6^2,6^3,6^4,6^5,6^6-decahydro-1^1H-8-oxa-1(5,3)-indola-6(1,3)-pyridazina-2(5,1)-pyridinacycloundecaphane-4-yl)amino)-3-methyl-1-oxobutan-2-yl)-N-methylpyrrolidine-3-carboxamide] | < 5 | 0.1 to 1 | 1 to 10 | 1 to 10 | > 10 | 1 to 10 | > 10
7 | CCn1c(-c2cccnc2[C@H](C)OC)c2c3cc(ccc31)-c1nc(nn1C)C[C@H](NC(=O)[C@@H](COC1CN(C(=O)C#CC(C)(C)N(C)C)C1)C(C)C)C(=O)N1CCC[C@H](N1)C(=O)OCC(C)(C)C2 (atropisomer, axis not shown) [Example A720, (2R)-2-(((1-(4-(dimethylamino)-4-methylpent-2-ynoyl)azetidin-3-yl)oxy)methyl)-N-((6^3S,4S,Z)-1^1-ethyl-1^2-(2-((S)-1-methoxyethyl)pyridin-3-yl)-2^1,10,10-trimethyl-5,7-dioxo-6^1,6^2,6^3,6^4,6^5,6^6-hexahydro-1^1H,2^1H-8-oxa-1(5,3)-indola-6(1,3)-pyridazina-2(5,3)-triazolacycloundecaphane-4-yl)-3-methylbutanamide] | < 5 | 0.01 to 0.1 | 1 to 10 | 1 to 10 | 1 to 10 | 1 to 10 | 1 to 10
8 | C=CC(=O)N1CCC(F)(C(=O)N(C)[C@H](C(=O)N[C@H]2C[C@H]3CN(CCO3)c3ccc4c(c3)c(c(-c3cccnc3[C@H](C)OC)n4CC)CC(C)(C)COC(=O)[C@@H]3CCCN(N3)C2=O)C(C)C)CC1 (atropisomer, axis not shown) [Example A722, 1-acryloyl-N-((2S)-1-(((6^3S,4S)-1^1-ethyl-1^2-(2-((S)-1-methoxyethyl)pyridin-3-yl)-10,10-dimethyl-5,7-dioxo-6^1,6^2,6^3,6^4,6^5,6^6-hexahydro-1^1H-8-oxa-2(4,2)-morpholina-1(5,3)-indola-6(1,3)-pyridazinacycloundecaphane-4-yl)amino)-3-methyl-1-oxobutan-2-yl)-4-fluoro-N-methylpiperidine-4-carboxamide] | < 5 | 0.01 to 0.1 | 1 to 10 | 0.1 to 1 | 1 to 10 | 1 to 10 | 1 to 10
9 | C=CC(=O)N1CC(OC[C@H](C(=O)N[C@H]2C[C@H]3CN(CCO3)c3ccc4c(c3)c(c(-c3cccnc3[C@H](C)OC)n4CC(F)(F)F)CC(C)(C)COC(=O)[C@@H]3CCCN(N3)C2=O)C(C)C)C1 (atropisomer, axis not shown) [Example A723] | < 5 | 0.1 to 1 | 1 to 10 | 1 to 10 | > 10 | 1 to 10 | > 10
10 | CCn1c(-c2cccnc2[C@H](C)OC)c2c3cc(ccc31)-c1csc(n1)C[C@H](NC(=O)[C@H](C(C)C)N(C)C(=O)N(C)C1CN(C(=O)/C=C/[C@H]3CCCN3C)C1)C(=O)N1CCC[C@H](N1)C(=O)OCC(C)(C)C2 (atropisomer, axis not shown) [Example A729] | < 5 | 0.1 to 1 | 0.1 to 1 | 0.1 to 1 | 0.1 to 1 | 0.1 to 1 | 0.1 to 1
11 | CCn1c(-c2cccnc2[C@H](C)OC)c2c3cc(ccc31)-c1csc(n1)C[C@H](NC(=O)[C@H](C(C)C)N(C)C(=O)N(C)C1CN(C(=O)/C=C/[C@@H]3CCCN3C)C1)C(=O)N1CCC[C@H](N1)C(=O)OCC(C)(C)C2 (atropisomer, axis not shown) [Example A730] | < 5 | 0.01 to 0.1 | 0.1 to 1 | 0.1 to 1 | 0.1 to 1 | 0.1 to 1 | 0.1 to 1
12 | CC#CC(=O)N1CC(N(C)C(=O)N(C)[C@H](C(=O)N[C@H]2Cc3nc(cs3)-c3ccc4c(c3)c(c(-c3cccnc3[C@H](C)OC)n4CC)CC(C)(C)COC(=O)[C@@H]3CCCN(N3)C2=O)C(C)C)C1 (atropisomer, axis not shown) [Example A731] | < 5 | 0.1 to 1 | 0.1 to 1 | 0.1 to 1 | 1 to 10 | 0.1 to 1 | 0.1 to 1
13 | C=C(F)C(=O)N1CC(N(C)C(=O)N(C)[C@H](C(=O)N[C@H]2Cc3nc(cs3)-c3ccc4c(c3)c(c(-c3cccnc3[C@H](C)OC)n4CC)CC(C)(C)COC(=O)[C@@H]3CCCN(N3)C2=O)C(C)C)C1 (atropisomer, axis not shown) [Example A732] | < 5 | 0.1 to 1 | 0.1 to 1 | 0.1 to 1 | 1 to 10 | 0.1 to 1 | 0.1 to 1
14 | C=CC(=O)N1CCN(C(=O)N(C)[C@H](C(=O)N[C@H]2Cc3nc(cs3)-c3ccc4c(c3)c(c(-c3cccnc3[C@H](C)OC)n4CC)CC(C)(C)COC(=O)[C@@H]3CCCN(N3)C2=O)C(C)C)[C@H]2C[C@H]21 (atropisomer, axis not shown) [Example A737] | < 5 | 0.01 to 0.1 | 0.1 to 1 | 0.01 to 0.1 | 0.1 to 1 | 0.01 to 0.1 | 0.01 to 0.1
15 | C=CS(=O)(=O)N1CCC(C(=O)N(C)[C@H](C(=O)N[C@H]2Cc3nc(cs3)-c3ccc4c(c3)c(c(-c3cncnc3)n4CC)CC(C)(C)COC(=O)[C@@H]3CCCN(N3)C2=O)C(C)C)C1 (single isomer, unassigned) [Example A170] | < 5 | 1 to 10 | > 10 | > 10 | > 10 | > 10 | > 10
16 | C=CS(=O)(=O)N1CCC(C(=O)N(C)[C@H](C(=O)N[C@H]2Cc3cccc(c3)-c3ccc4c(c3)c(c(-c3cncnc3)n4CC)CC(C)(C)COC(=O)[C@@H]3CCCN(N3)C2=O)C(C)C)C1 (single isomer, unassigned) [Example A171] | < 5 | 1 to 10 | > 10 | > 10 | > 10 | > 10 | > 10
